Data taken from US20170313674A1, “BENZYLHYDROXIDE DERIVATIVES, PREPARATION THEREOF AND THERAPEUTIC USE THEREOF” (SANOFI, priority 2014, published 2017).
Where two headings read alike, the source gives them in different places.

Experiments:
HIF-1a = test: Western blot model: HIF1-a stabilization in Hep3b cells under hypoxia; type: cell-based; conditions: hypoxia 1% O2, 6 hours; for Western Blot (range of decrease of HIF1-a stabilization): class symbol
Procedure: Since it was sought to determine the efficacy of the compounds to inhibit HIF1a stabilization under hypoxia, the compounds according to the invention underwent biochemical studies in order to determine their capacity to decrease HIF stabilization in Hep3b cells under hypoxia (western blot model).
Hep3B cells are seeded at a rate of 300000 cells per well in 6-wells culture plate in 2 ml of MEM supplemented with glutamin (2 mM) and 10% FCS (foetal calf serum) and incubated at 37° C. in the presence of 5% CO2. The next day, the cells are placed in contact with the compound and an incubation under hypoxia at 1% O2 is carried out at 37° C. in 95% humidity and 5% CO2 in a sealed anaerobic workstation (Hypoxystation H35-Don Whitley—AES Chemunex) during 6 hours.
Cells were washed (PBS) and lysed in SDS sample buffer. Proteins (25 μg) were separated on 4-12% Bis-Tris gels and transferred onto polyvinylidene difluoride membranes (Millipore). Membranes were blotted with a mouse monoclonal antibody to HIF-1a (BD transduction) and a mouse monoclonal anti-βactin (Sigma). Immunoreactive bands were detected with a horse radish peroxydase (HRP) anti-mouse antibody (Sigma) by enhanced chemiluminescence (Promega).
The inhibitory activity of the compounds for their capacity to decrease HIF1-a stabilization in Hep3b under hypoxia is expressed as range of percentage relative to control with: […]

[1] = test system: mitochondrial ATP production on non-small cell lung carcinoma cell lines NCI-H460; test: Mitochondrial ATP analysis (Cell Titer Glo) in NCI-H460 cells; type: cell-based; conditions: 1-hour incubation, with sodium iodoacetate (100 μM), concentration inhibiting 50% of mitochondrial ATP production, read-out: IC50 (mito ATP)
In short: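 NCI-H460 cells (1,000/well) treated 24 h after plating for 1 h with compound dose series alone or with 100 μM sodium iodoacetate; oligomycin A (10 μg/ml) and FCCP (30 μM) as controls; Cell Titer Glo luminescence. Mitochondrial ATP = ATP under iodoacetate minus ATP under iodoacetate+oligomycin; IC50 (M).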

Row | SMILES | IC50 [1] [nM] | IC50 ([1]; Homo sapiens, NCI-H460, 1 h) [nM] | Western Blot (decrease of HIF1-a stabilization, percentage relative to control) (HIF-1a) [%] | Western Blot (range of decrease of HIF1-a stabilization) (HIF-1a)
1 | COc1ccc(C(O)COc2ccc(-c3csc(-c4ccc(OCC(O)c5ccc(OC)c(OC)c5)cc4)n3)cc2)cc1OC (single isomer, unassigned) [Compound I-61, 1-(3,4-dimethoxyphenyl)-2-[4-[2-[4-[2-(3,4-dimethoxyphenyl)-2-hydroxy-ethoxy]phenyl]thiazol-4-yl]phenoxy]ethanol] | 326 | – | 46 | * (* represents a decrease of HIF-a stabilization between 30 to 50%)
2 | COc1ccc(C(O)COc2ccc(-c3csc(-c4ccc(OC(C)(C)C(O)c5ccc(OC)c(OC)c5)cc4)n3)cc2)cc1OC (stereo not drawn) [Compound I-63, 1-(3,4-dimethoxyphenyl)-2-[4-[4-[4-[2-(3,4-dimethoxyphenyl)-2-hydroxy-ethoxy]phenyl]thiazol-2-yl]phenoxy]-2-methyl-propan-1-ol] | – | 42.9 | 64 | ** (** represents a decrease of HIF-a stabilization between 50 to 70%)
3 | COc1ccc(C(O)COc2ccc(-c3csc(-c4ccc(OCC(O)c5ccc(OC)c(OC)c5)cc4)n3)cc2)cc1OC (single isomer, unassigned) [Compound I-24, 1-(3,4-dimethoxyphenyl)-2-[4-[2-[4-[2-(3,4-dimethoxyphenyl)-2-hydroxy-ethoxy]phenyl]thiazol-4-yl]phenoxy]ethanol] | 254 | – | 49 | * (* represents a decrease of HIF-a stabilization between 30 to 50%)
4 | COc1ccc(C(O)COc2ccc(-c3csc(-c4ccc(OC(C)(C)C(O)c5ccc(OC)c(OC)c5)cc4)n3)cc2)cc1OC (single isomer, unassigned) [Compound I-66, 1-(3,4-dimethoxyphenyl)-2-[4-[4-[4-[2-(3,4-dimethoxyphenyl)-2-hydroxy-ethoxy]phenyl]thiazol-2-yl]phenoxy]-2-methyl-propan-1-ol] | 26.5 | – | 54 | ** (** represents a decrease of HIF-a stabilization between 50 to 70%)
5 | COc1ccc(C(O)COc2ccc(-c3nc(-c4ccc(OC(C)(C)C(O)c5ccc(OC)c(OC)c5)cc4)cs3)cc2)cc1OC (stereo not drawn) [Compound I-64, 1-(3,4-dimethoxyphenyl)-2-[4-[2-[4-[2-(3,4-dimethoxyphenyl)-2-hydroxy-ethoxy]phenyl]thiazol-4-yl]phenoxy]-2-methyl-propan-1-ol] | – | 180 | 58 | ** (** represents a decrease of HIF-a stabilization between 50 to 70%)
6 | COc1ccc(C(O)COc2ccc(-c3nc(-c4ccc(OCC(O)c5ccc(OC)c(OC)c5)cc4)c(C)s3)cc2)cc1OC (single isomer, unassigned) [Compound I-11, 1-(3,4-dimethoxyphenyl)-2-[4-[2-[4-[2-(3,4-dimethoxyphenyl)-2-hydroxy-ethoxy]phenyl]-5-methyl-thiazol-4-yl]phenoxy]ethanol] | 557 | – | 65 | ** (** represents a decrease of HIF-a stabilization between 50 to 70%)

Further lines, with some results ahead:

Row | IC50 [1] [nM] | IC50 ([1]; Homo sapiens, NCI-H460, 1 h) [nM] | SMILES | Western Blot (decrease of HIF1-a stabilization, percentage relative to control) (HIF-1a) [%] | Western Blot (range of decrease of HIF1-a stabilization) (HIF-1a)
7 | 54.4 | – | COc1ccc(C(O)C(C)(C)Oc2ccc(-c3nsc(-c4ccc(OC(C)(C)C(O)c5ccc(OC)c(OC)c5)cc4)n3)cc2)cc1OC (single isomer, unassigned) [Compound I-44, 1-(3,4-dimethoxyphenyl)-2-[4-[5-[4-[2-(3,4-dimethoxyphenyl)-2-hydroxy-1,1-dimethyl-ethoxy]phenyl]-1,2,4-thiadiazol-3-yl]phenoxy]-2-methyl-propan-1-ol] | 45 | * (* represents a decrease of HIF-a stabilization between 30 to 50%)
8 | – | 21.3 | COc1ccc(C(O)C(C)(C)Oc2ccc(-c3nc(-c4ccc(OC(C)(C)C(O)c5ccc(OC)c(OC)c5)cc4)c(C)s3)cc2)cc1OC (stereo not drawn) [Compound I-6, 1-(3,4-dimethoxyphenyl)-2-[4-[2-[4-[2-(3,4-dimethoxyphenyl)-2-hydroxy-1,1-dimethyl-ethoxy]phenyl]-5-methyl-thiazol-4-yl]phenoxy]-2-methyl-propan-1-ol] | 43 | * (* represents a decrease of HIF-a stabilization between 30 to 50%)
9 | – | 51.9 | COc1ccc(C(O)C(C)(C)Oc2ccc(-c3cn(C)c(-c4ccc(OC(C)(C)C(O)c5ccc(OC)c(OC)c5)cc4)n3)cc2)cc1OC (stereo not drawn) [Compound I-57, 1-(3,4-dimethoxyphenyl)-2-[4-[2-[4-[2-(3,4-dimethoxyphenyl)-2-hydroxy-1,1-dimethyl-ethoxy]phenyl]-1-methyl-imidazol-4-yl]phenoxy]-2-methyl-propan-1-ol] | 18 | − (− represents a decrease of HIF1-a stabilization is less than 30%)
10 | – | 37 | COc1ccc(C(O)C(C)(C)Oc2ccc(-c3nsc(-c4ccc(OC(C)(C)C(O)c5ccc(OC)c(OC)c5)cc4)n3)cc2)cc1OC (single isomer, unassigned) [Compound I-43, 1-(3,4-dimethoxyphenyl)-2-[4-[5-[4-[2-(3,4-dimethoxyphenyl)-2-hydroxy-1,1-dimethyl-ethoxy]phenyl]-1,2,4-thiadiazol-3-yl]phenoxy]-2-methyl-propan-1-ol] | 32 | * (* represents a decrease of HIF-a stabilization between 30 to 50%)
11 | 62.8 | – | COc1ccc(C(O)C(C)(C)Oc2ccc(-c3coc(-c4ccc(OC(C)(C)C(O)c5ccc(OC)c(OC)c5)cc4)n3)cc2)cc1OC (single isomer, unassigned) [Compound I-18, 1-(3,4-dimethoxyphenyl)-2-[4-[2-[4-[2-(3,4-dimethoxyphenyl)-2-hydroxy-1,1-dimethyl-ethoxy]phenyl]oxazol-4-yl]phenoxy]-2-methyl-propan-1-ol] | 71 | *** (*** represents a decrease of HIF-a stabilization higher than 70%)
12 | – | 23 | COc1ccc(C(O)C(C)(C)Oc2ccc(-c3nc(-c4ccc(OC(C)(C)C(O)c5ccc(OC)c(OC)c5)cc4)c(C)o3)cc2)cc1OC (stereo not drawn) [Compound I-2, 1-(3,4-dimethoxyphenyl)-2-[4-[2-[4-[2-(3,4-dimethoxyphenyl)-2-hydroxy-1,1-dimethyl-ethoxy]phenyl]-5-methyl-oxazol-4-yl]phenoxy]-2-methyl-propan-1-ol] | 54 | ** (** represents a decrease of HIF-a stabilization between 50 to 70%)
13 | – | 3.86 | COc1ccc(C(O)C(C)(C)Oc2ccc(-c3nc(-c4ccc(OC(C)(C)C(O)c5ccc(OC)c(OC)c5)cc4)c(C)s3)cc2)cc1OC (single isomer, unassigned) [Compound I-9, 1-(3,4-dimethoxyphenyl)-2-[4-[2-[4-[2-(3,4-dimethoxyphenyl)-2-hydroxy-1,1-dimethyl-ethoxy]phenyl]-5-methyl-thiazol-4-yl]phenoxy]-2-methyl-propan-1-ol] | 58.5 | ** (** represents a decrease of HIF-a stabilization between 50 to 70%)
